Test results as given in patent US6268478A, “Intracellular vitamin D binding protein” (Cedars-Sinai Medical Center, priority 1997, dated 2001).

Legend:
[1] = tested on: ATP binding domain of IDBP; assay: 25-OHD3 binding activity of cells transfected with construct encoding the IDBP ATP binding domain; parameters: species or system Callithrix jacchus (common marmoset); conditions: COS-7 and OMK gibbon cells transfected with ATP binding domain construct
Description: This experiment was repeated with expression plasmids which encode different fragments of IDBP. The coding region of the cDNA contains a convenient Eco RI restriction site which divides the region encoding the deduced ATP binding from the deduced peptide binding domain and variable domain.

[2] = target: T1, human heat shock protein-70 (hsp70) (Homo sapiens, UniProt P0DMV8); assay: Competitive ligand binding of [3H]25-hydroxyvitamin D3 to recombinant inducibly-expressed hsp70
T1 construct: purchased StressGen, Victoria, B.C., Canada
Method: (§1) Ligand Binding Analyses. The ability of the unfractionated 100,000×g supernatant extracts of B95-8 cells and individual column fractions of chromatographically-purified material to bind [^3 H]25-OHD3 in the presence or absence of increasing concentrations of radioinert compounds (see Table I) was performed by competitive protein binding assay as previously described in Gacad et al. Bone Min. Res. 8:27-35 (1993).
(§2) Briefly, unfractionated or post-FPLC fractions were incubated in ETD-0.5 M NaCl overnight at 4° C. with 4 nM [3H]25-OHD3 in the presence or absence of 1-100 nM unlabeled competitive ligand. Protein-bound [^3 H]25-OHD3 was separated from unbound sterol by incubation with dextran-coated charcoal. Specifically-bound 25-OHD3 was determined by subtracting the mean of duplicate determinations of binding in the presence of 100 nM radioinert competitive ligand from the mean of determinations of binding in the absence of added competitive ligand. Specific binding of 17β-[^3 H]estradiol as well as [^3 H]25-OHD3 to IDBP(s) was also determined in individual fractions eluting from hydroxyapatite chromatography. The binding assay conditions were the same as those stated above except that specific binding was determined in ETD-0.3 M Na2 HPO4 buffer (pH 6.8).
Inducibly-expressed, recombinant human heat shock protein-70 (hsp70) was purchased from StressGen, Victoria, B.C., Canada. […]

IDBP(s) = assay: Specific binding of [3H]25-OHD3 and [3H]17β-estradiol in post-hydroxyapatite peak I and peak II fractions of B95-8 extract; parameters: species or system Callithrix jacchus (common marmoset); conditions: both peak I and peak II from hydroxyapatite chromatography; tracer ± 100 nM radioinert ligand
Method: as §2
On the basis of protein recovery, enrichment of bioactivity, ease of use, and resin available for FPLC and/or HPLC applications, three chromatographic supports, one each from the three different kinds of packing materials evaluated, were selected for serial chromatographic purification of IDBP(s): BPS-DE cellulose for anion exchange chromatography, phenyl sepharose (mid sub) for hydrophobic interaction chromatography, and HTP-hydroxyapatite for separation of proteins by their surface charge. […]

IDBP [3] = target: T2, IDBP (Saguinus oedipus, UniProt Q9N1U2); assay: Competitive displacement of [3H]25-OHD3 from IDBP in unfractionated 100,000×g supernatant extracts of B95-8 cells (competitive protein binding assay, dextran-coated charcoal); parameters: post-nuclear 100,000xg supernatant of B95-8 marmoset lymphoblasts and partly purified column fractions; species or system Callithrix jacchus (common marmoset)
Description: Culture and Extraction of B95-8 Cells. The B-lymphoblastoid cell line B95-8 was obtained from the American Type Culture Collection (ATCC, Manassas, Va.). This cell line was established by EBV transformation of blood leukocytes from the vitamin D-resistant new world primate, Callithrix jacchus (common marmoset). The cell line was maintained in RPMI-1640 medium (Irvine Scientific, Irvine, Calif.) routinely supplemented with 10% fetal calf serum (FCS; Gemini BioProducts, Calabasas, Calif.), 100 units/ml penicillin, 100 μg/ml streptomycin, 2 mM L-glutamine (both from Gibco-BRL, Grand Island, N.Y.) in an atmosphere of 95% air-5% CO2.
Confluent cultures were harvested by agitation to dislodge clumps of lymphoblasts that were weakly adherent to the plastic flask. Harvested cells were pelleted and washed twice in ice cold phosphate-buffered saline (PBS; 20 mM Na2 HPO4 and 150 mM NaCl, pH 7.2). The pelleted cells were then resuspended in ETD buffer (1 mM EDTA, 10 mM Tris-HCl, 5 mM dithiothreitol, pH 7.4) containing 1 mM phenylmethylsulfonylflouride and homogenized by Polytron on ice in five 15-second bursts. Nuclei with associated nuclear steroid receptor proteins, were pelleted at 4,000×g for 30 minutes at 4° C. The post-nuclear supernatant of this spin was then subjected to high-speed centrifugation at 100,000×g for 1 hour at 4° C. The resulting "100,000×g supernatant" was either aliquoted and stored at […] for further study, used in competitive ligand binding analyses, or subjected to further purification as described below in Example II.
as §1, with “fractions of chromatographically-purified material to bind [^3 H]25-OHD3 in the presence or absence” left out
[…] […] […] […] The binding assay conditions were the same as those stated above except that specific binding was determined in ETD-0.3 M Na2 HPO4 buffer (pH 6.8).

IDBP [4] = target: T2, IDBP; assay: 25-OHD3 binding activity of cells transiently transfected with plasmid expressing the IDBP coding region; parameters: species or system Callithrix jacchus (common marmoset)
Description: The coding region of IDBP shown in FIG. 3 was cloned into pcDNA3.1 (Invitrogen). […] Control plasmid was the pcDNA3.1 vector without cloned insert.

T2 sequence (Q9N1U2 whole entry): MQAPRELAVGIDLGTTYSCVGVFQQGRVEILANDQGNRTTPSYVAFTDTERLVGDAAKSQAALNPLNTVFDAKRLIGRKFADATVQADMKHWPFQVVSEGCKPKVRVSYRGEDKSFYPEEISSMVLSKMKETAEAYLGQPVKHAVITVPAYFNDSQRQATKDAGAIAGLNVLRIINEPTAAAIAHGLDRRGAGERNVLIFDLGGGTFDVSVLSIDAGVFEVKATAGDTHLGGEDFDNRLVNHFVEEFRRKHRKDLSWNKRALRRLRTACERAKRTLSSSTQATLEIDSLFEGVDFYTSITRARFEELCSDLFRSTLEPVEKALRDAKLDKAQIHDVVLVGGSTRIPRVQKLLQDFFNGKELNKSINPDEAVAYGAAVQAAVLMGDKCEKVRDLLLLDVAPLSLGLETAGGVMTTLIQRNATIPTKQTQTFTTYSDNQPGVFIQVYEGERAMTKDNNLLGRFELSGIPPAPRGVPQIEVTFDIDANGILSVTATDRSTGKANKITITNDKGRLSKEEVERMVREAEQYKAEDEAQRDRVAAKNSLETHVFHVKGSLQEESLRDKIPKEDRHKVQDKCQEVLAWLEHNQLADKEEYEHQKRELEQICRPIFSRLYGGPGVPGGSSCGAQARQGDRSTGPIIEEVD
T1 sequence (P0DMV8 whole entry): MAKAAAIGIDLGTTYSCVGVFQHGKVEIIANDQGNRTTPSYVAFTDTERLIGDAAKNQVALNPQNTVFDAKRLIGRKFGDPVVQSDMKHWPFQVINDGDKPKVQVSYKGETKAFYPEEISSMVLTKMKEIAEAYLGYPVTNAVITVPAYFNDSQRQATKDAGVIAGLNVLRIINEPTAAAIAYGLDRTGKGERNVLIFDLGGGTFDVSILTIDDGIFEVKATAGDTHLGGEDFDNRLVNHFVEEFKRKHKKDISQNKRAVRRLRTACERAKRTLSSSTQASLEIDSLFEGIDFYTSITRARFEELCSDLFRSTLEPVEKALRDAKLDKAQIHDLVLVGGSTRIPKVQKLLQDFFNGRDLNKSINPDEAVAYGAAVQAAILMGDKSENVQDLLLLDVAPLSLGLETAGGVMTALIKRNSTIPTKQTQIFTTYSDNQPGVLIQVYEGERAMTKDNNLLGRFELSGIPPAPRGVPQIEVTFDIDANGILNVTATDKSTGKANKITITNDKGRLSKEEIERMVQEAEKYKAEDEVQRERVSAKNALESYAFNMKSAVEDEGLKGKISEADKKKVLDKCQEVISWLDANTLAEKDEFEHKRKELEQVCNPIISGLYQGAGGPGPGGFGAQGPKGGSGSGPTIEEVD

C=C1CC[C@H](O)C/C1=C/C=C1\CCC[C@]2(C)[C@@H]([C@H](C)CCCC(C)(C)O)CC[C@@H]12 [25-OHD3, 25-hydroxy vitamin D3]
25-OHD3 binding activity [1]: exhibited enhanced 25-OHD3 binding activity
IC (maximal displacement) ([2]; inducibly expressed hsp70, read-out: concentration of radioinert ligand required to achieve maximal displacement of [3H]25-hydroxyvitamin D3): 0.05 to 0.1 µM
specific binding activity for 25-OHD3 relative to that of 17β-estradiol (IDBP(s)): approximately 2 fold
ability to competitively displace [3H]25-OHD3 binding (FIG. 1A) (IDBP [3]; 100 nM competitor, 2 nM [3H]25-OHD3): roughly equivalent in their ability to competitively inhibit
IC (maximal displacement) (IDBP [3]; IDBP, read-out: concentration of radioinert ligand required to achieve maximal displacement of [3H]25-hydroxyvitamin D3): 0.05 to 0.1 µM
25-OHD3 binding activity (IDBP [4]; Cos-7 cells transfected with IDBP coding region in pcDNA3.1): approximately 0.8 fmol/μg protein
25-OHD3 binding activity (IDBP [4]; OMK gibbon cells transfected with IDBP coding region in pcDNA3.1): approximately 1.0 fmol/μg protein

[^3 H]25-hydroxy vitamin D3 [[^3 H]25-OHD3]
specific [3H]25-OHD3 binding activity of hsp70 ([2]; recombinant human inducibly-expressed hsp70): exhibited specific [^3 H]25-OHD3 binding activity
